Test results as given in patent publication US20230263822A1, “MODULATION OF FACTOR 11 EXPRESSION” (Ionis Pharmaceuticals, Inc., priority 2008, published 2023).
Strand notation (5' to 3'): a small letter for the sugar, then the base; units joined by * are phosphorothioate-linked, units joined directly phosphodiester-linked; [ ] holds rarer units or linkages, { } end groups; capitals alone tell only the bases. e = 2'-O-(2-methoxyethyl) (MOE); [5mC] = 5-methylcytosine; d = 2'-deoxy (DNA)

Tests used:
Format in all cases: cell-based
human Factor 11 mRNA [1] = assay: Antisense inhibition of human Factor 11 in HepG2 cells, lipofectin, 75 nM (Example 1); conditions: 75 nM antisense oligonucleotide, ~24 h, relative to untreated control cells
Procedure: Antisense oligonucleotides targeted to a Factor 11 nucleic acid were tested for their effects on Factor 11 mRNA in vitro. Cultured HepG2 cells at a density of 10,000 cells per well were transfected using lipofectin reagent with 75 nM antisense oligonucleotide. After a treatment period of approximately 24 hours, RNA was isolated from the cells and Factor 11 mRNA levels were measured by quantitative real time PCR. Factor 11 mRNA levels were adjusted according to total RNA content, as measured by RIBOGREEN. Results are presented as percent inhibition of Factor 11, relative to untreated control cells.
The chimeric antisense oligonucleotides in Tables 1 and 2 were designed as 5-10-5 MOE gapmers. The gapmers are 20 nucleotides in length, wherein the central gap segment is comprised of 10 2′-deoxynucleotides and is flanked on both sides (in the 5′ and 3′ directions) by wings comprising 5 nucleotides each. Each nucleotide in the 5′ wing segment and each nucleotide in the 3′ wing segment has a 2′-MOE modification. The internucleoside linkages throughout each gapmer are phosphorothioate (P=S) linkages. All cytidine residues throughout each gapmer are 5-methylcytidines. “Target start site” indicates the 5′-most nucleotide to which the gapmer is targeted. “Target stop site” indicates the 3′-most nucleotide to which the gapmer is targeted. Each gapmer listed in Table 1 is targeted to SEQ TD NO: 1 (GENBANK Accession No. NM_000128.3) and each gapmer listed in Table 2 is targeted to SEQ TD NO: 2 (GENBANK Accession No. NT_022792.17, truncated from 19598000 to 19624000).

human Factor 11 mRNA [2] = assay: Dose-dependent inhibition of human Factor 11 in HepG2 cells, electroporation 0.7-20 uM (Example 4); conditions: for percent inhibition of Factor 11 at 0.7 μM / percent inhibition of Factor 11 at 2.2 μM / percent inhibition of Factor 11 at 6.7 μM / percent inhibition of Factor 11 at 20 μM: relative to untreated control cells
Procedure: (§1) The gapmers were also transfected via electroporation and their dose dependent inhibition of human Factor 11 mRNA was measured. Cells were plated at a density of 20,000 cells per well and transfected via electroporation with 0.7 μM, 2.2 μM, 6.7 μM, and 20 μM concentrations of antisense oligonucleotide, as specified in Table 10. After a treatment period of approximately 16 hours, RNA was isolated from the cells and Factor 11 mRNA levels were measured by quantitative real-time PCR. Human Factor 11 primer probe set RTS 2966 was used to measure mRNA levels. Factor 11 mRNA levels were adjusted according to total RNA content, as measured by RIBOGREEN. Results are presented as percent inhibition of Factor 11, relative to untreated control cells.

human Factor 11 mRNA [3] = assay: Dose-dependent inhibition of human Factor 11 in HepG2 cells, lipofectin 9.375-75 nM (Example 4); conditions: for percent inhibition of Factor 11 at 9.375 nM / percent inhibition of Factor 11 at 18.75 nM / percent inhibition of Factor 11 at 37.5 nM / percent inhibition of Factor 11 at 75 nM: relative to untreated control cells
Procedure: as §1, with “Cells” for “The gapmers were also transfected via electroporation and their dose dependent inhibition of human Factor 11 mRNA was measured. Cells”, “10,000” for “20,000”, “using lipofectin reagent” for “via electroporation”, “9.375 nM, 18.75 nM, 37.5 nM” for “0.7 μM, 2.2 μM, 6.7 μM,”, “75 nM” for “20 μM”, “9.” for “10.”

human Factor 11 mRNA [4] = assay: Antisense inhibition of human Factor 11 in HepG2 cells by microwalk gapmers, lipofectin, 75 nM (Example 3)
Procedure, shortened: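 HepG2 cells (10,000/well) were transfected via lipofectin with 75 nM 20-mer MOE gapmers (phosphorothioate, 5-methyl-C) for about 24 h. Factor 11 mRNA was measured by qRT-PCR, normalized to RIBOGREEN total RNA, and given as percent inhibition versus untreated cells.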

[5] = gapmers targeted to SEQ ID NO: 1
[6] = gapmers targeted to SEQ ID NO: 2
[7] = HepG2, lipofectin, ~24 h, gapmers targeted to nucleobases 656 to 704 of SEQ ID NO: 1
[8] = HepG2 cells, lipofectin, gapmers targeted to nucleobases 1275 to 1318 of SEQ ID NO: 1

| Substance | % inhibition (human Factor 11 mRNA [1]; [5]) | IC50 (human Factor 11 mRNA [2]) | percent inhibition of Factor 11 at 0.7 μM (human Factor 11 mRNA [2]) | percent inhibition of Factor 11 at 2.2 μM (human Factor 11 mRNA [2]) | percent inhibition of Factor 11 at 6.7 μM (human Factor 11 mRNA [2]) | percent inhibition of Factor 11 at 20 μM (human Factor 11 mRNA [2]) | IC50 (human Factor 11 mRNA [3]) | percent inhibition of Factor 11 at 9.375 nM (human Factor 11 mRNA [3]) | percent inhibition of Factor 11 at 18.75 nM (human Factor 11 mRNA [3]) | percent inhibition of Factor 11 at 37.5 nM (human Factor 11 mRNA [3]) | percent inhibition of Factor 11 at 75 nM (human Factor 11 mRNA [3]) | also measured |
| --- | --- | --- | --- | --- | --- | --- | --- | --- | --- | --- | --- | --- |
| 412198 (antisense eT*eT*e[5mC]*eA*eG*dG*dA*d[5mC]*dA*d[5mC]*dA*dA*dG*dT*dA*eA*eA*e[5mC]*e[5mC]*eA) [compound 412198] | 21% | – | – | – | – | – | – | – | – | – | – | – |
| 413513 (antisense eT*eT*e[5mC]*eT*eG*dA*dA*dT*dA*dT*dA*d[5mC]*dA*dA*dA*eT*eT*eA*eA*eT) [compound 413513] | – | – | – | – | – | – | – | – | – | – | – | % inhibition (human Factor 11 mRNA [1]; [6]): 27% |
| 413478 (antisense eA*eG*eA*eA*eT*dG*dG*d[5mC]*dA*dG*dA*dA*d[5mC]*dA*d[5mC]*eT*eG*eG*eG*eA) [compound 413478] | 53% | – | – | – | – | – | – | – | – | – | – | – |
| 412239 (antisense eT*eT*e[5mC]*eA*eG*dA*dT*dT*dG*dA*dT*dT*dT*dA*dA*eA*eA*eT*eG*e[5mC]) [compound 412239] | 43% | – | – | – | – | – | – | – | – | – | – | – |
| 412240 (antisense eT*eG*eA*eA*e[5mC]*d[5mC]*d[5mC]*d[5mC]*dA*dA*dA*dG*dA*dA*dA*eG*eA*eT*eG*eT) [compound 412240] | 32% | – | – | – | – | – | – | – | – | – | – | – |
| 413519 (antisense eA*eT*eG*eG*eA*dG*dA*d[5mC]*dA*dT*dT*d[5mC]*dA*dT*dT*eT*e[5mC]*e[5mC]*eA*e[5mC]) [compound 413519] | – | – | – | – | – | – | – | – | – | – | – | % inhibition (human Factor 11 mRNA [1]; [6]): 59% |
| 412201 (antisense e[5mC]*eA*eT*eT*eG*d[5mC]*dT*dT*dG*dA*dA*dA*dG*dA*dA*eT*eA*e[5mC]*e[5mC]*e[5mC]) [compound 412201] | 66% | – | – | – | – | – | – | – | – | – | – | – |
| 412243 (antisense eT*eT*e[5mC]*e[5mC]*eA*dG*dT*dT*dT*d[5mC]*dA*dA*d[5mC]*dA*dA*eG*eG*e[5mC]*eA*eA) [compound 412243] | 70% | – | – | – | – | – | – | – | – | – | – | – |
| 412260 (antisense e[5mC]*eA*e[5mC]*eA*eA*dA*dT*d[5mC]*dA*dT*dT*dT*dT*dT*d[5mC]*eA*eG*eG*eA*eA) [compound 412260] | 27% | – | – | – | – | – | – | – | – | – | – | – |
| 412220 (antisense eT*eG*eG*eT*eA*dA*dA*dA*dT*dG*dA*dA*dG*dA*dA*eT*eG*eG*e[5mC]*eA) [compound 412220] | 58% | – | – | – | – | – | – | – | – | – | – | – |
| 413472 (antisense eT*eG*eG*eG*eT*dG*dT*dG*d[5mC]*dT*dT*d[5mC]*dA*dG*dT*eA*eG*eA*e[5mC]*eA) [compound 413472] | 99% | – | – | – | – | – | – | – | – | – | – | – |
| 413537 (antisense eA*eG*eA*eA*eA*dT*dA*dT*d[5mC]*d[5mC]*d[5mC]*d[5mC]*dA*dG*dA*e[5mC]*eA*eG*eA*eG) [compound 413537] | – | – | – | – | – | – | – | – | – | – | – | % inhibition (human Factor 11 mRNA [1]; [6]): 16% |
| 412194 (antisense eT*eG*e[5mC]*eA*eA*dT*dT*d[5mC]*dT*dT*dA*dA*dT*dA*dA*eG*eG*eG*eT*eG) [compound 412194] | 80% | – | – | – | – | – | – | – | – | – | – | – |
| 412241 (antisense eT*eA*eT*eT*eA*dT*dT*dT*d[5mC]*dT*dT*dG*dA*dA*d[5mC]*e[5mC]*e[5mC]*e[5mC]*eA*eA) [compound 412241] | 41% | – | – | – | – | – | – | – | – | – | – | – |
| 412242 (antisense eA*eA*e[5mC]*eA*eA*dG*dG*d[5mC]*dA*dA*dT*dA*dT*d[5mC]*dA*eT*eA*e[5mC]*e[5mC]*e[5mC]) [compound 412242] | 49% | – | – | – | – | – | – | – | – | – | – | – |
| 413471 (antisense eT*e[5mC]*eA*eG*eT*dA*dG*dA*d[5mC]*dA*dA*dA*dT*dG*dT*eT*eA*e[5mC]*eG*eA) [compound 413471] | 67% | – | – | – | – | – | – | – | – | – | – | – |
| 416984 (antisense e[5mC]*eA*dA*d[5mC]*d[5mC]*dG*dG*dG*dA*dT*dG*dA*dT*dG*dA*eG*eT*eG*e[5mC]*eA) [compound 416984] | – | 1.1 µM | 43% | 54% | 88% | 90% | 0.022 µM | 26% | 50% | 62% | 81% | % inhibition (human Factor 11 mRNA [4]; HepG2 cells, lipofectin, gapmers targeted to nucleobases 1018 to 1042 of SEQ ID NO: 1): 89% |
| 416972 (antisense eT*eA*dT*dG*d[5mC]*d[5mC]*d[5mC]*dT*dT*d[5mC]*dA*dT*dG*dT*d[5mC]*eT*eA*eG*eG*eT) [compound 416972] | – | 4.3 µM | 25% | 30% | 48% | 88% | 0.026 µM | 32% | 40% | 60% | 69% | % inhibition (human Factor 11 mRNA [4]; [7]): 90% |
| 416945 (antisense eA*eA*dT*dG*dT*d[5mC]*dT*dT*dT*dG*dT*dT*dG*d[5mC]*dA*eA*eG*e[5mC]*eG*e[5mC]) [compound 416945] | – | 0.6 µM | 48% | 70% | 81% | 88% | 0.024 µM | 34% | 45% | 62% | 65% | % inhibition (human Factor 11 mRNA [4]; [7]): 94% |
| 416895 (antisense eT*eA*eT*dG*d[5mC]*d[5mC]*d[5mC]*dT*dT*d[5mC]*dA*dT*dG*dT*d[5mC]*dT*dA*eG*eG*eT) [compound 416895] | – | 3 µM | 0% | 62% | 70% | 91% | 0.015 µM | 39% | 57% | 66% | 71% | % inhibition (human Factor 11 mRNA [4]; [7]): 95% |
| 416941 (antisense eG*eG*e[5mC]*dA*dG*d[5mC]*dG*dG*dA*d[5mC]*dG*dG*d[5mC]*dA*dT*dT*dG*eG*eT*eG) [compound 416941] | – | 3 µM | 16% | 38% | 79% | 89% | 0.019 µM | 33% | 54% | 63% | 78% | % inhibition (human Factor 11 mRNA [4]; [8]): 95% |
| 416922 (antisense eG*e[5mC]*eA*d[5mC]*dA*dG*dT*dT*dT*d[5mC]*dT*dG*dG*d[5mC]*dA*dG*dG*e[5mC]*e[5mC]*eT) [compound 416922] | – | 1.7 µM | 35% | 51% | 77% | 91% | 0.036 µM | 14% | 25% | 49% | 75% | % inhibition (human Factor 11 mRNA [4]; [8]): 94% |
| 416969 (antisense eG*e[5mC]*d[5mC]*d[5mC]*dT*dT*d[5mC]*dA*dT*dG*dT*d[5mC]*dT*dA*dG*eG*eT*e[5mC]*e[5mC]*eA) [compound 416969] | – | 2.5 µM | 25% | 34% | 86% | 92% | 0.028 µM | 17% | 39% | 61% | 76% | % inhibition (human Factor 11 mRNA [4]; [7]): 80% |
